Results: patent US20250163104A1, “MACROCYCLIC IMMUNOMODULATORS” (priority 2021, published 2025)
Where a SMILES comes first, the peptide text is derived from it. Bridges are numbered along the chain shown (N, C = ends). [ ]: non-standard residue; d: D form. The star is where a group is joined. Bip = N[C@@H](Cc1ccc(-c2ccccc2)cc1)C(=O)O; Cha = N[C@@H](CC1CCCCC1)C(=O)O; Cit = NC(=O)NCCC[C@H](N)C(=O)O; Carboxymethyl = O=C(O)C*; Nle = CCCC[C@H](N)C(=O)O; Orn = NCCC[C@H](N)C(=O)O; Dab = NCC[C@H](N)C(=O)O; Dap = NC[C@H](N)C(=O)O

Biological target: T1, human PD-1 / PD-L1-Ig binding on Jurkat cell line over-expressing human PD-1 (Jurkat-PD-1) (Homo sapiens, UniProt Q15116)
T1 construct: expressed in transfected cells; host or cells: Jurkat
T1 sequence (Q15116 25-288): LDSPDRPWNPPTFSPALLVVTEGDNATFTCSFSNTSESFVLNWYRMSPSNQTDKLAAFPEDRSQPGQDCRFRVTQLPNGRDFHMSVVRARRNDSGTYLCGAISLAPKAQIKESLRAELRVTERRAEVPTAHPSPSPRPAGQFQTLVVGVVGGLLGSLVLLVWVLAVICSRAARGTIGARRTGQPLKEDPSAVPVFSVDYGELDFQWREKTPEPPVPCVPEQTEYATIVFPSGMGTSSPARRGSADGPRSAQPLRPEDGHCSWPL
Assay: Jurkat-PD-1 Cell Binding High-Content Screening Assay (CBA)
Assay type: cell-based
Settings: Jurkat-PD-1 cells, PE-labeled PD-L1-Ig 20 nM final; read-out: Jurkat HPD1_PDL1 IC50
How it was run: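 Jurkat cells over-expressing human PD-1, in DMEM/10% FCS, pre-incubated with compound 2 h at 37° C. PE-labeled human PD-L1-Ig (20 nM final) added for 1 h; cells fixed in paraformaldehyde with Hoechst 33342 nuclear stain, washed, and bound fluorescence quantified by high-content imaging.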

SMILES	IC50
CCCC[C@@H]1NC(=O)[C@H](CCCNC(=N)N)NC(=O)[C@@H](CC(C)C)NC(=O)[C@H](CCCN)NC(=O)[C@H]([C@@H](C)CC)NC(=O)[C@H](Cc2ccc(-c3ccccc3)cc2)NC(=O)[C@H](C(C)C)NC(=O)[C@H](Cc2c[nH]c3ccccc23)NC(=O)[C@H](CC(=O)O)NC(=O)[C@H](Cc2ccc(O)cc2)NC(=O)[C@H](CC(N)=O)NC(=O)CSC[C@@H](C(=O)N[C@@H](C)C(N)=O)NC(=O)[C@H]([C@@H](C)O)NC(=O)[C@H](C(C)C)NC1=O [Compound 1151] ({CH2CO}-NYDWV[Bip]I[Orn][dL]R[Nle]VTCA-NH2; thioether N-14)	70.9 nM
CCCC[C@@H]1NC(=O)[C@H](CCCNC(=N)N)NC(=O)[C@@H](CC(C)C)NC(=O)[C@H](CCCN)NC(=O)[C@H]([C@@H](C)CC)NC(=O)[C@H](Cc2ccc(-c3ccccc3)cc2)NC(=O)[C@H](C(C)C)NC(=O)[C@H](Cc2c[nH]c3ccccc23)NC(=O)[C@H](CC(=O)O)NC(=O)[C@H](Cc2ccc(O)cc2)NC(=O)[C@H](Cc2ccccc2)NC(=O)CSC[C@@H](C(=O)N[C@@H](C)C(N)=O)NC(=O)[C@H]([C@@H](C)O)NC(=O)[C@H](C(C)C)NC1=O [Compound 1152] ({CH2CO}-FYDWV[Bip]I[Orn][dL]R[Nle]VTCA-NH2; thioether N-14)	64.7 nM
CC(C)C[C@H]1NC(=O)[C@H](CCCN)NC(=O)[C@H](CCCNC(N)=O)NC(=O)[C@H](Cc2ccc(-c3ccccc3)cc2)NC(=O)[C@H](C(C)C)NC(=O)[C@H](Cc2c[nH]c3ccccc23)NC(=O)[C@H](CC(=O)O)NC(=O)[C@H](Cc2ccc(O)cc2)NC(=O)[C@H](CN)NC(=O)CSC[C@@H](C(=O)N[C@@H](C)C(N)=O)NC(=O)[C@H]([C@@H](C)O)NC(=O)[C@H](C(C)C)NC(=O)[C@H](CC2CCCCC2)NC(=O)[C@H](CCCNC(=N)N)NC1=O [Compound 1153] ({CH2CO}-[Dap]YDWV[Bip][Cit][Orn][dL]R[Cha]VTCA-NH2; thioether N-14)	8.9 nM
CC(C)C[C@H]1NC(=O)[C@H](CCCN)NC(=O)[C@H](CCCNC(N)=O)NC(=O)[C@H](Cc2ccc(-c3ccccc3)cc2)NC(=O)[C@H](C(C)C)NC(=O)[C@H](Cc2c[nH]c3ccccc23)NC(=O)[C@H](CC(=O)O)NC(=O)[C@H](Cc2ccc(O)cc2)NC(=O)[C@H](Cc2ccc(OCC(=O)O)cc2)NC(=O)CSC[C@@H](C(=O)N[C@@H](C)C(N)=O)NC(=O)[C@H]([C@@H](C)O)NC(=O)[C@H](C(C)C)NC(=O)[C@H](CC2CCCCC2)NC(=O)[C@H](CCCNC(=N)N)NC1=O [Compound 1154] ({CH2CO}-Y(Carboxymethyl)YDWV[Bip][Cit][Orn][dL]R[Cha]VTCA-NH2; thioether N-14)	9.2 nM
CC(C)C[C@H]1NC(=O)[C@H](CCCN)NC(=O)[C@H](CCCNC(N)=O)NC(=O)[C@H](Cc2ccc(-c3ccccc3)cc2)NC(=O)[C@H](C(C)C)NC(=O)[C@H](Cc2c[nH]c3ccccc23)NC(=O)[C@H](CC(=O)O)NC(=O)[C@H](Cc2ccc(O)cc2)NC(=O)[C@H](CC(N)=O)NC(=O)CSC[C@@H](C(=O)N[C@@H](C)C(N)=O)NC(=O)[C@H]([C@@H](C)O)NC(=O)[C@H](C(C)C)NC(=O)[C@H](CC2CCCCC2)NC(=O)[C@H](CCCNC(=N)N)NC1=O [Compound 1155] ({CH2CO}-NYDWV[Bip][Cit][Orn][dL]R[Cha]VTCA-NH2; thioether N-14)	7.7 nM
CC(C)C[C@H]1NC(=O)[C@H](CCCN)NC(=O)[C@H](CCCNC(N)=O)NC(=O)[C@H](Cc2ccc(-c3ccccc3)cc2)NC(=O)[C@H](C(C)C)NC(=O)[C@H](Cc2c[nH]c3ccccc23)NC(=O)[C@H](CC(=O)O)NC(=O)[C@H](Cc2ccc(O)cc2)NC(=O)[C@H](Cc2ccccc2)NC(=O)CSC[C@@H](C(=O)N[C@@H](C)C(N)=O)NC(=O)[C@H]([C@@H](C)O)NC(=O)[C@H](C(C)C)NC(=O)[C@H](CC2CCCCC2)NC(=O)[C@H](CCCNC(=N)N)NC1=O [Compound 1156] ({CH2CO}-FYDWV[Bip][Cit][Orn][dL]R[Cha]VTCA-NH2; thioether N-14)	20.7 nM
CC(C)C[C@H]1NC(=O)[C@H](CCCN)NC(=O)[C@H](CCCNC(N)=O)NC(=O)[C@H](Cc2ccc(-c3ccccc3)cc2)NC(=O)[C@H](C(C)C)NC(=O)[C@H](Cc2c[nH]c3ccccc23)NC(=O)[C@H](CC(=O)O)NC(=O)[C@H](Cc2ccc(O)cc2)NC(=O)[C@H](CN)NC(=O)CSC[C@@H](C(=O)N[C@@H](C)C(N)=O)NC(=O)[C@H]([C@@H](C)O)NC(=O)[C@H](C(C)C)NC(=O)[C@H](CC2CCCCC2)NC(=O)[C@H](CCN)NC1=O [Compound 1157]	10.6 nM
CCCC[C@@H]1NC(=O)[C@H](CCN)NC(=O)[C@@H](CC(C)C)NC(=O)[C@H](CCCN)NC(=O)[C@H](CCCNC(N)=O)NC(=O)[C@H](Cc2ccc(-c3ccccc3)cc2)NC(=O)[C@H](C(C)C)NC(=O)[C@H](Cc2c[nH]c3ccccc23)NC(=O)[C@H](CC(=O)O)NC(=O)[C@H](Cc2ccc(O)cc2)NC(=O)[C@H](CN)NC(=O)CSC[C@@H](C(=O)N[C@@H](C)C(N)=O)NC(=O)[C@H]([C@@H](C)O)NC(=O)[C@H](C(C)C)NC1=O [Compound 1158] ({CH2CO}-[Dap]YDWV[Bip][Cit][Orn][dL][Dab][Nle]VTCA-NH2; thioether N-14)	73.1 nM
CC[C@H](C)[C@@H]1NC(=O)[C@H](Cc2ccc(-c3ccccc3)cc2)NC(=O)[C@H](C(C)C)NC(=O)[C@H](Cc2c[nH]c3ccccc23)NC(=O)[C@H](CC(=O)O)NC(=O)[C@H](Cc2ccc(O)cc2)NC(=O)[C@H](CN)NC(=O)CSC[C@@H](C(=O)N[C@@H](C)C(N)=O)NC(=O)[C@H]([C@@H](C)O)NC(=O)[C@H](C(C)C)NC(=O)[C@H](CC2CCCCC2)NC(=O)[C@H](CCN)NC(=O)[C@@H](CC(C)C)NC(=O)[C@H](CCCN)NC1=O [Compound 1159]	8.1 nM
CCCC[C@@H]1NC(=O)[C@H](CCN)NC(=O)[C@@H](CC(C)C)NC(=O)[C@H](CCCN)NC(=O)[C@H]([C@@H](C)CC)NC(=O)[C@H](Cc2ccc(-c3ccccc3)cc2)NC(=O)[C@H](C(C)C)NC(=O)[C@H](Cc2c[nH]c3ccccc23)NC(=O)[C@H](CC(=O)O)NC(=O)[C@H](Cc2ccc(O)cc2)NC(=O)[C@H](CN)NC(=O)CSC[C@@H](C(=O)N[C@@H](C)C(N)=O)NC(=O)[C@H]([C@@H](C)O)NC(=O)[C@H](C(C)C)NC1=O [Compound 1160] ({CH2CO}-[Dap]YDWV[Bip]I[Orn][dL][Dab][Nle]VTCA-NH2; thioether N-14)	31.3 nM
CC(C)C[C@H]1NC(=O)[C@H](CCCN)NC(=O)[C@H](CCCNC(N)=O)NC(=O)[C@H](Cc2ccc(-c3ccccc3)cc2)NC(=O)[C@H](C(C)C)NC(=O)[C@H](Cc2c[nH]c3ccccc23)NC(=O)[C@H](CC(=O)O)NC(=O)[C@H](Cc2ccc(O)cc2)NC(=O)[C@H](CC(N)=O)NC(=O)CSC[C@@H](C(=O)N[C@@H](C)C(N)=O)NC(=O)[C@H]([C@@H](C)O)NC(=O)[C@H](C(C)C)NC(=O)[C@H](CC2CCCCC2)NC(=O)[C@H](CCN)NC1=O [Compound 1161] ({CH2CO}-NYDWV[Bip][Cit][Orn][dL][Dab][Cha]VTCA-NH2; thioether N-14)	16.1 nM
CCCC[C@@H]1NC(=O)[C@H](CCN)NC(=O)[C@@H](CC(C)C)NC(=O)[C@H](CCCN)NC(=O)[C@H](CCCNC(N)=O)NC(=O)[C@H](Cc2ccc(-c3ccccc3)cc2)NC(=O)[C@H](C(C)C)NC(=O)[C@H](Cc2c[nH]c3ccccc23)NC(=O)[C@H](CC(=O)O)NC(=O)[C@H](Cc2ccc(O)cc2)NC(=O)[C@H](CC(N)=O)NC(=O)CSC[C@@H](C(=O)N[C@@H](C)C(N)=O)NC(=O)[C@H]([C@@H](C)O)NC(=O)[C@H](C(C)C)NC1=O [Compound 1162] ({CH2CO}-NYDWV[Bip][Cit][Orn][dL][Dab][Nle]VTCA-NH2; thioether N-14)	327 nM
CC[C@H](C)[C@@H]1NC(=O)[C@H](Cc2ccc(-c3ccccc3)cc2)NC(=O)[C@H](C(C)C)NC(=O)[C@H](Cc2c[nH]c3ccccc23)NC(=O)[C@H](CC(=O)O)NC(=O)[C@H](Cc2ccc(O)cc2)NC(=O)[C@H](CC(N)=O)NC(=O)CSC[C@@H](C(=O)N[C@@H](C)C(N)=O)NC(=O)[C@H]([C@@H](C)O)NC(=O)[C@H](C(C)C)NC(=O)[C@H](CC2CCCCC2)NC(=O)[C@H](CCN)NC(=O)[C@@H](CC(C)C)NC(=O)[C@H](CCCN)NC1=O [Compound 1163] ({CH2CO}-NYDWV[Bip]I[Orn][dL][Dab][Cha]VTCA-NH2; thioether N-14)	26.1 nM
CC(C)C[C@H]1NC(=O)[C@H](CCCN)NC(=O)[C@H](CCCNC(N)=O)NC(=O)[C@H](Cc2ccc(-c3ccccc3)cc2)NC(=O)[C@H](C(C)C)NC(=O)[C@H](Cc2c[nH]c3ccccc23)NC(=O)[C@H](CC(=O)O)NC(=O)[C@H](Cc2ccc(O)cc2)NC(=O)[C@H](Cc2ccc(OCC(=O)O)cc2)NC(=O)CSC[C@@H](C(=O)N[C@@H](C)C(N)=O)NC(=O)[C@H]([C@@H](C)O)NC(=O)[C@H](C(C)C)NC(=O)[C@H](CC2CCCCC2)NC(=O)[C@H](CCN)NC1=O [Compound 1165]	14.6 nM
CCCC[C@@H]1NC(=O)[C@H](CCN)NC(=O)[C@@H](CC(C)C)NC(=O)[C@H](CCCN)NC(=O)[C@H](CCCNC(N)=O)NC(=O)[C@H](Cc2ccc(-c3ccccc3)cc2)NC(=O)[C@H](C(C)C)NC(=O)[C@H](Cc2c[nH]c3ccccc23)NC(=O)[C@H](CC(=O)O)NC(=O)[C@H](Cc2ccc(O)cc2)NC(=O)[C@H](Cc2ccc(OCC(=O)O)cc2)NC(=O)CSC[C@@H](C(=O)N[C@@H](C)C(N)=O)NC(=O)[C@H]([C@@H](C)O)NC(=O)[C@H](C(C)C)NC1=O [Compound 1166] ({CH2CO}-Y(Carboxymethyl)YDWV[Bip][Cit][Orn][dL][Dab][Nle]VTCA-NH2; thioether N-14)	58.3 nM
CC[C@H](C)[C@@H]1NC(=O)[C@H](Cc2ccc(-c3ccccc3)cc2)NC(=O)[C@H](C(C)C)NC(=O)[C@H](Cc2c[nH]c3ccccc23)NC(=O)[C@H](CC(=O)O)NC(=O)[C@H](Cc2ccc(O)cc2)NC(=O)[C@H](Cc2ccc(OCC(=O)O)cc2)NC(=O)CSC[C@@H](C(=O)N[C@@H](C)C(N)=O)NC(=O)[C@H]([C@@H](C)O)NC(=O)[C@H](C(C)C)NC(=O)[C@H](CC2CCCCC2)NC(=O)[C@H](CCN)NC(=O)[C@@H](CC(C)C)NC(=O)[C@H](CCCN)NC1=O [Compound 1167]	17 nM
